US20250361221A1, “SOLID STATE FORMS OF PALTUSOTINE AND PROCESS FOR PREPARATION THEREOF” (ASSIA CHEMICAL INDUSTRIES LTD., priority 2022, published 2025)

How the values were obtained:
Format in all cases: physicochemical
[1] = Storage stability at different relative humidities and temperatures, 6 months (XRPD); details: for XRPD analysis results: 6 months
Description: (§1) X-ray diffraction was performed on X-Ray powder diffractometer: Bruker D8 Advance; CuKα radiation (λ=1.5418 Å); Lynx eye detector; laboratory temperature 22-25° C.; PMMA specimen holder ring with silicon low background. Prior to analysis, the samples were gently ground by means of mortar and pestle in order to obtain a fine powder. The ground sample was adjusted into a cavity of the sample holder and the surface of the sample was smoothed by means of a cover glass.
(§2) • Scan range: 2-40 degrees 2-theta; • Scan mode: continuous; • Step size: 0.05 degrees; • Time per step: 0.5 s; • Sample spin: 30 rpm; • Sample holder: PMMA specimen holder ring with silicon low background.
Samples of Paltusotine form PL1 was subjected to conditions of different relative humidities at different temperatures. XRPD analysis was performed on the samples after 6 months.

[2] = Grinding experiments: strong grinding and solvent drop grinding (XRPD); details: 2 minutes
Description: as §1, §2
Samples of Paltusotine forms PL1 and PL11 were subjected to strong grinding, and to solvent drop grinding in water, ethanol and isopropanol. Grinding was carried out on the samples alone, or in the presence of ethanol or water. In these experiments, about 20 mg of the sample is placed in a mortar and ground with a pestle for 2 minutes. The solvent, when used, as added to the crystalline material before grinding, in a volume of 10 microlitres. XRPD analysis performed on each of the samples after the grinding experiment, confirmed no change in the starting material (Table 3): […]

[3] = Thermal stability: heating up to 100° C. for 30 minutes (XRPD); details: Heating 100° C.
Description: as §1, §2
Samples of Paltusotine forms PL1 and PL11 were subjected to heating up to 100° C. for 30 minutes. XRPD analysis of the sample confirmed no change in the starting material (Table 4): […]

[4] = Stability to compression: pressure of 2 tons in a hydraulic press (XRPD); details: 2 tons/1 minute
Description: as §1, §2
Samples of Paltusotine forms PL1 and PL11 were subjected to a pressure of 2 tons in a hydraulic press (Atlas® Autopress hydraulic press, set to 2 tons). XRPD analysis was performed on the samples after 1 minute.

N#Cc1cccc(-c2ccc3ncc(-c4cc(F)cc(F)c4)c(N4CCC(N)CC4)c3c2)c1O [Form PL1, Paltusotine]
XRPD analysis results ([1]; 25° C., 60% RH): No change | time stable after exposure to high and low relative humidity at different temperatures ([1]; 25° C./60% RH and 40° C./75% RH): at least 6 months | XRPD analysis results ([1]; 40° C., 75% RH): No change | XRPD analysis results ([2]; Solvent-drop grinding (ethanol), 10 microlitres): No change | XRPD analysis results ([2]; Solvent-drop grinding (isopropanol), 10 microlitres): No change | XRPD analysis results ([2]; Solvent-drop grinding (water), 10 microlitres): No change | XRPD analysis results ([2]; Strong grinding, mortar and pestle): No change | Result (XRPD analysis) [3]: Stable | Result (XRPD analysis) [4]: Stable
